Laboratory results published in patent US7332602B2, “Pyridyl substituted heterocycles useful for treating or preventing HCV infection” (Rigel Pharmaceuticals, Inc., priority 2002, dated 2008).
pIC50: −log10 of the molar value. Where two headings read alike, the source gives them in different places.

How the values were obtained:
[1] = cytotoxicity assay (Cell Titer Glo); format: cell-based; conditions: human; 48 hr with compound, ATP-dependent Cell Titer Glo; read-out: IC50 (cytotoxicity, number of viable cells)
Procedure: Compounds 1, 3, 7, 9, 11, 13, 17, 19, 21, 27, 29, 31, 33, 35, 37, 39, 47, 49, 51, 57 and 69 were tested in a cytotoxicity assay with liver cells including an HCV replicon (5-2 Luc cells, 9-13 cells or Huh-7 cells). In the assay, cells were seeded onto 96-well plates (approx. 7500 cells/well in a volume of 90 μl) and grown for 24 hr at 37° C. On day 2, various concentrations of test compound (in a volume of 10 μl) were added to the wells and the cells were grown for an additional 48 hr at 37° C. On day 4, an ATP-dependent R-Luciferase assay (Cell Titer Glo assay) was performed to determine the number of viable cells.

[2] = test system: HCV proteins (HCV replication); test: quantitative Western blot analysis with antibodies specific for certain HCV proteins; format: cell-based, Hepatitis C virus; conditions: read-out: Western (IC50, 50% reduction in the amount of the specified HCV protein)
Procedure: Certain exemplary compounds of the invention were also tested for their ability to inhibit HCV replication using a quantitative Western blot analysis with antibodies specific for certain HCV proteins. In this assay, the amount of test compound that yielded a 50% reduction in the amount of the specified HCV protein as compared to a control sample (IC50) was determined.

[3] = test system: HCV replicon (5-2 Luc replicon-comprising cells); test: HCV replicon assay (luciferase reporter); format: cell-based, Hepatitis C virus; conditions: read-out: Replicon (IC50, 50% reduction in luciferase emission)
Procedure: The inhibitory activity of certain exemplary compounds of the invention was confirmed using an HCV replicon assay. The HCV replicon can include such features as the HCV IRES, the HCV 3′ untranslated region, selected HCV genes encoding HCV polypeptides, selectable markers, and a reporter gene such as luciferase, GEP, etc. In the assay, actively dividing 5-2 Luc replicon-comprising cells were seeded at a density of between about 5,000 and 7,500 cells/well onto 96 well plates (about 90 μl of cells per well) and incubated at 37° C. and 5% CO2 for 24 hours. Then, the test compound (in a volume of about 10 μl) was added at various concentrations to each well and the cells were incubated for an additional 24 hours before luciferase assay. The cells were harvested, and HCV replication or translation was monitored via a reporter assay, e.g., a luciferase reporter assay. The media was aspirated from each cell and Bright-Glo ([…].) luciferase assay reagents were added to each well according to the manufacturer's instructions. In this assay, the amount of test compound that yielded a 50% reduction in luciferase emission (IC50) was determined.

[4] = Hepatitis C virus, second symbol of the Replicon/Western cell
[5] = Hepatitis C virus, first symbol of the Replicon/Western cell, 5-2 Luc replicon cells, 24 hours with compound

SMILES | IC50 at 48 h [1] | pIC50 [2, 4] | pIC50 [3, 5] | pIC50 ([2]; Hepatitis C virus) | pIC50 ([3]; Hepatitis C virus, 24 h) | pIC50 ([2]; second symbol of the Replicon/Western cell) | pIC50 ([3]; first symbol of the Replicon/Western cell, 5-2 Luc replicon cells, 24 hours with compound)
COc1cccc(C(F)(F)F)c1-c1cc(-c2cncc(NC(=O)C(Cl)Cl)c2)on1 [Compound 57, 2,2-Dichloro-N-[5-[3-(2-methoxy-6-trifluoromethylphenyl)-5-isoxazolyl]-(3-pyridyl)] Acetamide] | > 5 µM | > 5.00 | > 5.00 |  |  |  | 
O=C(Nc1cncc(-c2cc(-c3c(F)cccc3F)no2)c1)C(Cl)Cl [Compound 27, 2,2-Dichloro-N-[5-[3-(2,6-difluorophenyl)-5-isoxazolyl]-(3-pyridyl)] Acetamide] | ≥ 10 µM | > 5.00 | > 5.00 |  |  |  | 
O=C(Nc1ccnc(-c2cc(-c3c(F)cccc3C(F)(F)F)no2)c1)C(Cl)Cl [Compound 3, 2,2-Dichloro-N-[2-[3-(2-fluoro-6-trifluoromethylphenyl)-5-isoxazolyl]-(4-pyridyl)] Acetamide] | ≥ 10 µM | > 5.00 | > 5.00 |  |  |  | 
O=C(Nc1ccnc(-c2cc(-c3c(Cl)cccc3Cl)no2)c1)C(Cl)Cl [Compound 9, 2,2-Dichloro-N-[2-[3-(2,6-dichlorophenyl)-5-isoxazolyl]-(4-pyridyl)] Acetamide] | ≥ 10 µM |  |  | > 5.00 | > 5.00 |  | 
O=C(Nc1cncc(-c2cc(-c3c(F)cccc3Cl)no2)c1)C(Cl)Cl [Compound 13, 2,2-Dichloro-N-[5-[3-(2-chloro-6-fluorophenyl)-5-isoxazolyl]-(3-pyridyl)] Acetamide] | 3 µM | > 5.00 | > 5.00 |  |  |  | 
COc1cccc(C(F)(F)F)c1-c1cc(-c2cc(NC(=O)C(Cl)Cl)ccn2)on1 [Compound 49, 2,2-Dichloro-N-[2-[3-(2-methoxy-6-trifluoromethylphenyl)-5-isoxazolyl]-(4-pyridyl)] Acetamide] | ≥ 10 µM | > 5.00 | > 5.00 |  |  |  | 
Cc1cccc(C)c1-c1cc(-c2cncc(NC(=O)C(Cl)Cl)c2)on1 [Compound 21, 2,2-Dichloro-N-[5-[3-(2,6-dimethylphenyl)-5-isoxazolyl]-(3-pyridyl)] Acetamide] | ≥ 10 µM | < 5.00 | > 5.00 |  |  |  | 
O=C(Nc1cncc(-c2cc(-c3c(Cl)cccc3Cl)no2)c1)C(Cl)Cl [Compound 7, 2,2-Dichloro-N-[5-[3-(2,6-dichlorophenyl)-5-isoxazolyl]-(3-pyridyl)] Acetamide] | ≥ 10 µM | > 5.00 | > 5.00 |  |  |  | 
O=C(Nc1ccnc(-c2cc(-c3c(Cl)cccc3N3CCN(c4ccccn4)CC3)no2)c1)C(Cl)Cl [Compound 53] |  | > 5.00 | > 5.00 |  |  |  | 
COc1cccc(F)c1-c1cc(-c2cncc(NC(=O)C(Cl)Cl)c2)on1 [Compound 17, 272-Dichloro-N-[5-[3-(2-fluoro-6-methoxyphenyl)-5-isoxazolyl]-(3-pyridyl)] Acetamide] | ≥ 10 µM | > 5.00 | > 5.00 |  |  |  | 
COc1cccc(F)c1-c1cc(-c2cc(NC(=O)C(Cl)Cl)ccn2)on1 [Compound 5, 2,2-Dichloro-N-[2-[3-(2-fluoro-6-methoxyphenyl)-5-isoxazolyl]-(4-pyridyl)] Acetamide] |  | > 5.00 | < 5.00 |  |  |  | 
O=C(Nc1cccc(-c2cc(-c3cc(Cl)nc(Cl)c3)no2)c1)C(Cl)Cl [Compound 11, 2,2-Dichloro-N-[3-[3-[(2,6-dichloro)-4-pyridyl]-5-isoxazolyl]phenyl] Acetamide] |  |  |  |  |  | > 5.00 | < 5.00
